Assay results from patent US9694072B2, “Methods for diagnosing and treating neuroendocrine cancer” (Trustees of Dartmouth College, priority 2005, dated 2017).
Where a name gives a salt, the structure may show the parent alone. Read-outs that look alike come from different tables or passages of the source.

Key:
[1] = tested on: MCF-7 breast cancer cells; assay: Alamar Blue growth/proliferation study; format: cell-based, human; conditions: MCF-7, NMDAR1 antagonist treatment
[2] = tested on: SKBr3 breast cancer cells; assay: Alamar Blue growth/proliferation study; format: cell-based, human; conditions: SKBr3, NMDAR1 antagonist treatment
Protocol: Results represent triplicate studies performed with Alamar Blue on LAN2 neuroblastoma, MCF-7 breast cancer, and SKBr3 breast cancer cells examining the growth influence of 1 mM glutamate in the presence of glycine over 24 hours.
Results represent triplicate studies performed with Alamar Blue on LAN2 neuroblastoma, MCF-7 breast cancer, and SKBr3 breast cancer cells examining the growth influence of 100 mM Mg^++ in the presence of glycine over 24 hours.

[3] = tested on: NCI-H345 classical SCLC cells; assay: Cell growth/viability assay (Alamar Blue); conditions: for IC50: Homo sapiens
Protocol: Cultures of NCI-H345, NCI-H146, DMS-53 cells (classical cell lines), and NCI-H82 cells (variant cell line) were treated with 0.05% trypsin, washed in phosphate buffered saline (PBS)/glycine and plated onto 96-well plates at 10^4 cells/well in medium for 24 hours to provide time for rectifying possible damage to membrane proteins from the trypsinization. The wells were washed and incubated with PBS/glycine containing albumin (1.25 mg/mL) in the presence or absence of different concentrations (25 μM-800 μM) of either the NMDAR 1 antagonists, Memantine or MK-801; or the NMDAR2B antagonists Ifenprodil and Ro 25-6981 (binders to the polyamine site), or the NMDAR2B antagonists L-701,252 and L-701,324 (binders to the glycine site), or vehicle; and Alamar Blue (1:10 dilution following manufacturer's recommendation). Fluorescent readings were taken at periods representing 24, 48, and 72 hours of incubation with antagonist using a Synergy HT Multi-Detection Microplate Reader and excitation/emission wavelengths of 530 nm and 590 nm. Cell viability was evaluated as % vehicle control at the corresponding incubation time.
This peptide domain is represented in that portion of the mRNA message sequenced by RT-PCR. For studies on cell proliferation, the IgGs of this antiserum were first isolated by precipitation with 50% saturated ammonium sulfate, and antibodies purified from these immunoglobulins by affinity chromatography using a column containing the peptide component of the above antigen coupled to SEPHAROSE (Friedmann, et al. (1994) supra; Keegan, et al. (2002) supra).

[4] = tested on: NCI-H82 variant SCLC cells; assay: Cell growth/viability assay (Alamar Blue); format: cell-based, human; conditions: for IC50: Homo sapiens
Protocol: (§1) Cultures of NCI-H345, NCI-H146, DMS-53 cells (classical cell lines), and NCI-H82 cells (variant cell line) were treated with 0.05% trypsin, washed in phosphate buffered saline (PBS)/glycine and plated onto 96-well plates at 10^4 cells/well in medium for 24 hours to provide time for rectifying possible damage to membrane proteins from the trypsinization. […] Fluorescent readings were taken at periods representing 24, 48, and 72 hours of incubation with antagonist using a Synergy HT Multi-Detection Microplate Reader and excitation/emission wavelengths of 530 nm and 590 nm. Cell viability was evaluated as % vehicle control at the corresponding incubation time.

NCI-H146 cells = assay: Cell growth/viability assay (Alamar Blue); format: cell-based, human; conditions: Homo sapiens, NCI-H146, 48 h, read-out: IC50, cell viability
Protocol: as §1

DMS-53 cells = assay: Cell growth/viability assay (Alamar Blue); format: cell-based, human; conditions: Homo sapiens, DMS-53, 48 h, read-out: IC50, cell viability
Protocol: as §1

[5] = tested on: SCLC NCI-H345 tumor xenografts; assay: Treatment of SCLC tumor xenografts in mice; format: in vivo, nu/nu mice
Excerpt: Human tumor xenografts of small cell lung cancer (SCLC) cell line NCI-H345 were raised in nu/nu mice, and the influence of the NMDAR1 receptor antagonist dizocilpine maleate (MK-801) then examined on established tumor growth measured by multiplying depth, width, and length determined using a micrometer. Tumor growth in a control group of animals receiving i.p. PBS vehicle (n=4) was compared to tumor growth in animals (n=4) receiving dizocilpine maleate (MK-801) over 10 days. Animals received an escalating single dose of this NMDAR1 antagonist from 0.1 mg/Kg body weight each day for days 0-2, then to a single dose of 0.2 mg/Kg body weight each day for days 3-6, then to a single dose of 0.3 mg/Kg body weight each day for days 7-8. Finally two daily doses of 0.3 mg/Kg body weight were given for days 8-10.
Results were analyzed by Analysis of Variance and the Student-Neuman-Kuels test. Longitudinal growth data was evaluated using repeated measures ANOVA. Significant was determined to be present for p<0.05.

[6] = tested on: Ovarian A2780 and A2008 cancer cells; assay: Ovarian cancer cell growth (Alamar Blue); format: cell-based, human
Protocol: Ovarian A2780 and A2008 cancer cells were plated in 96 well plates at 1-2×10^4 cells/well. […] Alamar Blue was later added to each well following an incubation period, and fluorescent readings taken at excitation 530-560 nm and emission of 590 nm and above on a SYNERGY HT Multi Detection Reader. […] Significance was p<0.001 for 400 to 900 μM of MK-801. […] These findings indicate both NMDAR antagonists and anti-NMDA receptor monoclonal antibodies would be of use as effective inhibitors of ovarian tumor xenografts in mice.

[7] = tested on: LNCAP prostate cancer cells; assay: Prostate cancer cell viability (Alamar Blue); format: cell-based, human
Protocol: To determine the effects of NMDAR1 antibodies on prostate cell viability, LNCAP prostate cancer cells were plated in 96 well plates at 1-2×10^4 cells/well. […] Alamar Blue was later added to each well following an incubation period, and fluorescent readings taken at excitation 530-560 nm and emission 590 nm and above on a SYNERGY HT Multi Detection Reader.

[8] = tested on: Human tumor xenografts of breast cancer cells; assay: Breast cancer xenografts treated with anti-NMDAR1 antibodies; parameters: species or system nu/nu mice; conditions: mouse
Protocol: Human tumor xenografts of breast cancer cells were raised in nu/nu mice, and the influence of anti-NMDAR1 polyclonal antibodies then examined on tumor growth. For antibody studies, growth in a control group (n=4) was compared to tumor growth in animals (n=4) receiving 50 ng of Protein A-isolated, antibody-containing, IgG once each day for 15 days. Tumor was then measured for an […]. While control tumors grew to >20 times their original size, tumors treated with anti-NMDAR1 antibodies shrank to <50% original size and remained at this shrunken size for the duration of treatment (p<<0.0001)(FIG. 7). Tumor size then began very slowly to rise but even 20 days later they were only back to original size (100%). Values are expressed as a percentage of tumor size at day 0 (+/−SEM).

[9] = tested on: SKBr3 breast cancer cells; assay: Alamar Blue growth/proliferation study; format: cell-based, human

C[C@]12N[C@H](Cc3ccccc31)c1ccccc12 [MK-801, dizocilpine maleate]
effect on proliferation (in words) [1]: decrease proliferation | effect on proliferation (in words) [2]: decrease proliferation | IC50 ([3]; NCI-H345, 48 h, read-out: IC50, cell viability): 300 µM | IC50 ([3]; NCI-H345, read-out: IC50, cell viability): ~200 µM | Cell viability reduced to ([3]; NCI-H345, 24, 48, and 72 hours incubation): about 10 % of control | IC50 ([4]; NCI-H82, 48 h, read-out: IC50, cell viability): 300 µM | IC50 ([4]; NCI-H82, read-out: IC50, cell viability): ~200 µM | Cell viability reduced to ([4]; NCI-H82, 24, 48, and 72 hours incubation): about 10 % of control | IC50 (NCI-H146 cells): 650 µM | IC50 (DMS-53 cells): > 800 µM | behavioral effects in the animals ([5]; MK-801 at the dose indicated): no noticeable behavioral effects | well-being as exemplified by body weight ([5]; MK-801 at the dose indicated): no apparent effect on their well-being | Growth of small-cell tumors (in words) ([5]; escalating doses from 0.1 mg/kg once daily to 0.3 mg/kg twice daily): significantly (p<0.0001) reduced | rate of tumor growth reduced to ([5]; i.p., escalating 0.1 to 0.3 mg/Kg over 10 days): ~60 % that of controls | reduction in fluorescent units ([6]; at 500, 600, 700, 800, and 900 μM compared to 100, 200 and 400 μM): more than 50% | effect on cell growth (in words) ([6]; ovarian cancer cells, Alamar Blue): dramatic reductions in cell growth | effect on cell growth/viability (in words) [7]: significance in reductions was p<0.001 for 400 to 900 μM | growth of breast cancer tumors in vivo (in words) [8]: completely inhibited growth of these tumors in vivo | Proliferation of SKBr3 Cells Percent Fluorescence Compared to Control ([9]; 100 μM, 24 Hours): 92.29 ± 6.82% | Proliferation of SKBr3 Cells Percent Fluorescence Compared to Control ([9]; 100 μM, 48 Hours): 91.74 ± 2.94% | Proliferation of SKBr3 Cells Percent Fluorescence Compared to Control ([9]; 100 μM, 72 Hours): 95.06 ± 1.22% | Proliferation of SKBr3 Cells Percent Fluorescence Compared to Control ([9]; 200 μM, 24 Hours): 89.47 ± 5.77% | Proliferation of SKBr3 Cells Percent Fluorescence Compared to Control ([9]; 200 μM, 48 Hours): 89.35 ± 2.83% | Proliferation of SKBr3 Cells Percent Fluorescence Compared to Control ([9]; 200 μM, 72 Hours): 93.24 ± 1.68% | Proliferation of SKBr3 Cells Percent Fluorescence Compared to Control ([9]; 300 μM, 24 Hours): 84.39 ± 5.01% | Proliferation of SKBr3 Cells Percent Fluorescence Compared to Control ([9]; 300 μM, 48 Hours): 83.79 ± 2.71% | Proliferation of SKBr3 Cells Percent Fluorescence Compared to Control ([9]; 300 μM, 72 Hours): 88.97 ± 2.04% | Proliferation of SKBr3 Cells Percent Fluorescence Compared to Control ([9]; 400 μM, 24 Hours): 75.17 ± 4.67% | Proliferation of SKBr3 Cells Percent Fluorescence Compared to Control ([9]; 400 μM, 48 Hours): 70.62 ± 2.34% | Proliferation of SKBr3 Cells Percent Fluorescence Compared to Control ([9]; 400 μM, 72 Hours): 77.08 ± 2.78% | Proliferation of SKBr3 Cells Percent Fluorescence Compared to Control ([9]; 500 μM, 24 Hours): 65.50 ± 3.74% | Proliferation of SKBr3 Cells Percent Fluorescence Compared to Control ([9]; 500 μM, 48 Hours): 59.07 ± 2.49% | Proliferation of SKBr3 Cells Percent Fluorescence Compared to Control ([9]; 500 μM, 72 Hours): 67.02 ± 5.13% | Proliferation of SKBr3 Cells Percent Fluorescence Compared to Control ([9]; 600 μM, 24 Hours): 58.06 ± 3.00% | Proliferation of SKBr3 Cells Percent Fluorescence Compared to Control ([9]; 600 μM, 48 Hours): 50.59 ± 2.34% | Proliferation of SKBr3 Cells Percent Fluorescence Compared to Control ([9]; 600 μM, 72 Hours): 52.57 ± 2.28% | Proliferation of SKBr3 Cells Percent Fluorescence Compared to Control ([9]; 700 μM, 24 Hours): 51.97 ± 2.77% | Proliferation of SKBr3 Cells Percent Fluorescence Compared to Control ([9]; 700 μM, 48 Hours): 43.84 ± 3.41% | Proliferation of SKBr3 Cells Percent Fluorescence Compared to Control ([9]; 700 μM, 72 Hours): 44.88 ± 3.40% | Proliferation of SKBr3 Cells Percent Fluorescence Compared to Control ([9]; 800 μM, 24 Hours): 43.27 ± 2.50% | Proliferation of SKBr3 Cells Percent Fluorescence Compared to Control ([9]; 800 μM, 48 Hours): 33.77 ± 4.19% | Proliferation of SKBr3 Cells Percent Fluorescence Compared to Control ([9]; 800 μM, 72 Hours): 33.91 ± 4.35% | Proliferation of SKBr3 Cells Percent Fluorescence Compared to Control ([9]; 900 μM, 24 Hours): 35.73 ± 2.66% | Proliferation of SKBr3 Cells Percent Fluorescence Compared to Control ([9]; 900 μM, 48 Hours): 25.48 ± 5.92% | Proliferation of SKBr3 Cells Percent Fluorescence Compared to Control ([9]; 900 μM, 72 Hours): 25.21 ± 5.96% | reduced proliferation by ([9]; SKBr3, 0.9 mM, 72 hours): about 80%
